# PMC9405216, “Antimicrobial and Cytotoxic Cyathane-Xylosides from Cultures of the Basidiomycete Dentipellis fragilis” (Antibiotics, 2022)
# Read-outs that look alike come from different tables or passages of the source. Marks after values point to notes of the source that are not given here.
# Assays:
# Format in all cases: cell-based
# [1] = test system: Mycolicibacterium smegmatis (ATCC 700084); assay: Serial dilution MIC assay, Mycolicibacterium smegmatis; conditions: overnight incubation, n.i. = no inhibition
# Procedure: (§1) Serial dilution assays in 96-well microtiter plates were performed according to our standard protocol in order to determine the minimum inhibitory concentrations (MICs) of pure isolated compounds against different microorganisms. Essentially, aliquots of compounds 1–5 and 9 (20 µL), each with an initial concentration of 1 mg/mL, were diluted in MeOH together with the respective microorganisms to concentrations ranging between 67 µg/mL and 0.5 µg/mL in the 96-well plates, followed by overnight incubation. The MIC was then determined as the lowest concentration at which no growth of the test organism was observed. A broad spectrum of clinically approved test pathogens and sensitivity indicator strains were used in the assays (Table 4 and Table 5). Ciprofloxacin, oxytetracycline, kanamycin, and gentamycin were used as positive controls against bacterial pathogens, while nystatin was used as the positive control against fungi.
# [2] = test system: KB3.1 (ACC158) human endocervical adenocarcinoma; assay: MTT cytotoxicity test, KB3.1; conditions: KB3.1 human endocervical adenocarcinoma, five days incubation, n.c. = no cytotoxicity
# Text: (§2) A panel of mammalian cell lines was used to determine the cytotoxicity of the compounds following a previously published protocol. The assay was initially performed using the sensitive cell lines KB3.1 (human endocervical adenocarcinoma) and L929 (mouse fibroblasts). Active compounds were further tested using the cell lines MCF-7 (human breast adenocarcinoma), PC-3 (human prostate adenocarcinoma), SKOV-3 (ovarian carcinoma), A549 (human lung carcinoma), and A431 (human squamous cell carcinomas) (Table 6). The cell lines A549, KB 3.1, and L929 were cultured in DMEM (Gibco, provided by Thermo Fisher Scientific), PC-3 in F12-K (Gibco) and MC-7, and SKOV-3 and A431 in RPMI (Gibco). With the exception of A549, all cell lines were supplemented with 10% bovine serum (Gibco). All cell lines were cultured at 37 °C. The L929 and KB 3.1 cell lines were cultivated under an atmosphere of 10% (v/v) carbon dioxide. Cytotoxicity tests were then carried out using MTT (3-(4,5-dimethylthiazol-2-yl)-2,5-diphenyltetrazolium bromide) in 96-well microtiter plates. Serial dilutions of the compounds (60 µL aliquots, each with an initial concentration of 1 mg/mL) were added into 120 µL aliquots of cell suspension (50000 cells/mL) in the 96-well plates. These were incubated for five days, after which an MTT assay was performed. The absorbance was taken at 590 nm using an Elisa plate reader (Victor, Überlingen, Germany). The half-maximal inhibitory concentration (IC50), the concentration at which cell growth inhibition was 50% of the control, was calculated as described elsewhere.
# [3] = test system: L929 (ACC2) mouse fibroblasts; assay: MTT cytotoxicity test, L929; conditions: five days incubation, n.c. = no cytotoxicity
# Text: as §2
# [4] = test system: Actinobacter baumannii (DSM 30008); assay: Serial dilution MIC assay, Actinobacter baumannii; conditions: serial dilution 67-0.5 µg/mL, overnight incubation, n.i. = no inhibition
# Procedure: as §1
# [5] = test system: Schizosaccharomyces pombe (DSM 70572); assay: Serial dilution MIC assay, Schizosaccharomyces pombe; conditions: overnight incubation, n.i. = no inhibition
# Procedure: as §1
# [6] = test system: Candida albicans (DSM 1665); assay: Serial dilution MIC assay, Candida albicans; conditions: serial dilution 67-0.5 µg/mL, overnight incubation, n.i. = no inhibition
# Procedure: as §1
# [7] = test system: Mucor hiemalis (DSM 2656); assay: Serial dilution MIC assay, Mucor hiemalis; conditions: overnight incubation, n.i. = no inhibition
# Procedure: as §1
# [8] = test system: PC-3 (ACC465) human prostate adenocarcinoma; assay: MTT cytotoxicity test, PC-3; conditions: 120 h, PC-3 human prostate adenocarcinoma, five days incubation
# Text: as §2
# [9] = test system: A431 (ACC91) human squamous cell carcinomas; assay: MTT cytotoxicity test, A431; conditions: A-431, 120 h, five days incubation
# Text: as §2
# [10] = test system: Escherichia coli (DSM 1116); assay: Serial dilution MIC assay, Escherichia coli; conditions: serial dilution 67-0.5 µg/mL, overnight incubation, n.i. = no inhibition
# Procedure: as §1
# [11] = test system: Staphylococcus aureus (DSM 346); assay: Serial dilution MIC assay, Staphylococcus aureus; conditions: overnight incubation, n.i. = no inhibition
# Procedure: as §1
# [12] = test system: Pseudomonas aeruginosa (DSM PA14); assay: Serial dilution MIC assay, Pseudomonas aeruginosa; conditions: serial dilution 67-0.5 µg/mL, overnight incubation, n.i. = no inhibition
# Procedure: as §1
# [13] = test system: SKOV-3 (ovarian carcinoma); assay: MTT cytotoxicity test, SKOV-3; conditions: Homo sapiens, SK-OV-3, 120 h, five days incubation
# Text: as §2
# [14] = test system: other cell lines (MCF-7, A549, PC-3, SKOV-3, A431); assay: MTT cytotoxicity test, other cell lines of the panel; conditions: range over the cell lines other than L929 and KB3.1 (Table 6)
# Text: as §2, with “These were incubated for five days, after which an MTT assay was performed.” left out, “The half-maximal inhibitory concentration (IC50), the concentration at which cell growth inhibition was 50% of the control, was calculated as described elsewhere.” left out
# [15] = test system: Bacillus subtilis (DSM 10); assay: Serial dilution MIC assay, Bacillus subtilis; conditions: overnight incubation, n.i. = no inhibition
# Procedure: as §1
# [16] = test system: Pichia anomala (DSM 6766); assay: Serial dilution MIC assay, Pichia anomala; conditions: overnight incubation, n.i. = no inhibition
# Procedure: as §1
# [17] = test system: Rhodotorula glutinis (DSM 10134); assay: Serial dilution MIC assay, Rhodotorula glutinis; conditions: overnight incubation, n.i. = no inhibition
# Procedure: as §1
# [18] = test system: MCF-7 (A115) human breast adenocarcinoma; assay: MTT cytotoxicity test, MCF-7; conditions: MCF7, 120 h, MCF-7 human breast adenocarcinoma, five days incubation
# Text: as §2
# [19] = test system: Chromobacterium violaceum (DSM 30191); assay: Serial dilution MIC assay, Chromobacterium violaceum; conditions: overnight incubation, n.i. = no inhibition
# Procedure: as §1
# [20] = test system: A549 (ACC107) human lung carcinoma; assay: MTT cytotoxicity test, A549; conditions: Homo sapiens, 120 h, five days incubation
# Text: as §2
# [21] = test system: tested microorganisms (bacteria and fungi); assay: Serial dilution MIC assays, whole panel of tested strains; conditions: all bacteria and fungi of Tables 4 and 5, result in words
# Procedure: as §1
# [22] = DSM2656, serial dilution 67-0.5 µg/mL, read-out: MIC
# [23] = DSM346, serial dilution 67-0.5 µg/mL, read-out: MIC
# [24] = DSM10, serial dilution 67-0.5 µg/mL, read-out: MIC
# [25] = DSM10134, serial dilution 67-0.5 µg/mL, read-out: MIC
structure (smiles),measurement,setting,value
"NC[C@H]1O[C@H](O[C@H]2[C@H](O)[C@@H](O[C@H]3O[C@H](CO)[C@@H](O)[C@H](N)[C@H]3O)[C@H](N)C[C@@H]2N)[C@H](O)[C@@H](O)[C@@H]1O [kanamycin, reference compound]",MIC,[1]; serial dilution 67-0.5 µg/mL,1.7 ^b µg/mL
"CC(C)C1=C2[C@H]3CC[C@H](CO)[C@@H]4[C@H](O[C@@H]5OC[C@@H](O)[C@H](O)[C@@]54O)[C@]3(C)CC[C@@]2(C)CC1 [Compound 6, dentifragilin F]",IC50,[2],not cytotoxic
same,IC50,[3],not cytotoxic
"O=C(O)c1cn(C2CC2)c2cc(N3CCNCC3)c(F)cc2c1=O [ciprofloxacin, reference compound]",MIC,[4]; read-out: MIC,0.3 µg/mL
"CC(C)C1=C2C3CC=C4C5OC6C(O)(COC7OC(C4C76O)C3(C)CCC2(C)CC1)O5 (stereo not drawn) [Compound 1, dentifragilin A]",MIC,"[5]; DSM70572, serial dilution 67-0.5 µg/mL, read-out: MIC",33.3 µg/mL
same,MIC,[6],n.i.
same,IC50,"[2]; KB 3-1, 120 h, read-out: IC50",2200 nM
same,MIC,[7]; [22],16.7 µg/mL
same,IC50,[8],2300 nM
same,IC50,[9],15800 nM
same,MIC,[10],n.i.
same,MIC,[11]; [23],4.2 µg/mL
same,MIC,[4],n.i.
same,IC50,"[3]; 120 h, read-out: IC50",5800 nM
same,MIC,[12],n.i.
same,IC50,[13],1900 nM
same,IC50,[14],700 to 15800 nM
same,MIC,[15]; [24],1 µg/mL
same,MIC,"[16]; Hansenula anomala, DSM6766, serial dilution 67-0.5 µg/mL, read-out: MIC",66.6 µg/mL
same,MIC,[17]; [25],16.7 µg/mL
same,IC50,[18],700 nM
same,MIC,[19]; serial dilution 67-0.5 µg/mL,n.i.
same,MIC,"[1]; ATCC700084, serial dilution 67-0.5 µg/mL, read-out: MIC",66.6 µg/mL
same,IC50,[20],2800 nM
"CC(C)C1=C2[C@H]3CC=C(C=O)[C@@H]4[C@H](O[C@@H]5OC[C@@H](O)[C@H](O)[C@@]54O)[C@]3(C)CC[C@@]2(C)CC1 [Compound 5, dentifragilin E]",MIC,[5]; serial dilution 67-0.5 µg/mL,n.i.
same,MIC,[6],n.i.
same,IC50,"[2]; KB 3-1, 120 h, read-out: IC50",15700 nM
same,IC50,[2],weak activities
same,MIC,[7]; [22],33.3 µg/mL
same,MIC,[10],n.i.
same,MIC,[11]; [23],16.7 µg/mL
same,MIC,[4],n.i.
same,IC50,"[3]; 120 h, read-out: IC50",34700 nM
same,IC50,[3],weak activities
same,MIC,[12],n.i.
same,MIC,[15]; [24],16.7 µg/mL
same,MIC,[16]; serial dilution 67-0.5 µg/mL,n.i.
same,MIC,[17]; [25],66.6 µg/mL
same,MIC,"[19]; DSM30191, serial dilution 67-0.5 µg/mL, read-out: MIC",66.6 µg/mL
same,MIC,[1]; serial dilution 67-0.5 µg/mL,n.i.
"CC(C)C1=C2[C@H]3CC[C@@H]4CO[C@@]5(O)[C@H](O)CO[C@H]6O[C@@H]([C@@H]4[C@]65O)[C@]3(C)CC[C@@]2(C)CC1=O [Compound 3, dentifragilin C]",MIC,[5]; serial dilution 67-0.5 µg/mL,n.i.
same,MIC,[6],n.i.
same,IC50,[2],not cytotoxic
same,activity against all tested microorganisms,[21],devoid of any activity
same,MIC,[7]; serial dilution 67-0.5 µg/mL,n.i.
same,MIC,[10],n.i.
same,MIC,[11]; serial dilution 67-0.5 µg/mL,n.i.
same,MIC,[4],n.i.
same,IC50,[3],not cytotoxic
same,MIC,[12],n.i.
same,MIC,[15]; serial dilution 67-0.5 µg/mL,n.i.
same,MIC,[16]; serial dilution 67-0.5 µg/mL,n.i.
same,MIC,[17]; serial dilution 67-0.5 µg/mL,n.i.
same,MIC,[19]; serial dilution 67-0.5 µg/mL,n.i.
same,MIC,[1]; serial dilution 67-0.5 µg/mL,n.i.
"C[C@@H]1[C@H](O)[C@@H](C)/C=C/C=C/CC/C=C/C=C/C=C/C=C/C(O[C@H]2O[C@H](C)[C@@H](O)[C@H](N)[C@@H]2O)CC2O[C@](O)(CC(O)C(O)CCC(O)CC(O)CC(O)CC(=O)O[C@H]1C)CC(O)C2C(=O)O (stereo partly drawn) [nystatin, reference compound]",MIC,[5]; serial dilution 67-0.5 µg/mL,4.2 µg/mL
same,MIC,[6],8.3 µg/mL
same,MIC,[7]; serial dilution 67-0.5 µg/mL,4.2 µg/mL
same,MIC,[16]; serial dilution 67-0.5 µg/mL,8.3 µg/mL
same,MIC,[17]; serial dilution 67-0.5 µg/mL,2.1 µg/mL
